Reference: US10765114B2, “4-amino-6-(pyridyl and 2-substitutedphenyl)-picolinates and 6-amino-2-(pyridyl and 2-substitutedphenyl)-pyrimidine-4-carboxylates and their use as herbicides” (Dow AgroSciences LLC, priority 2013, dated 2020)

How the values were obtained:
Assay in all cases: Post-Emergent Test III (Wheat and Barley)
PAPRH (common poppy) = assay type: in vivo, Papaver rhoeas; conditions: for Visual Growth Reduction (%) 21 Days After Application, PAPRH: postemergence; for GR50, PAPRH: effective dose for growth reduction of 50 percent; for GR50, PAPRH / GR80, PAPRH / GR90, PAPRH: probit analysis; for GR80, PAPRH: effective dose for growth reduction of 80 percent; for GR90, PAPRH: effective dose for growth reduction of 90 percent
Protocol: (§1) Seeds of the desired test plant species were planted in Sun Gro MetroMix® 306 planting mixture, which typically has a pH of 6.0 to 6.8 and an organic matter content of about 30 percent, in plastic pots with a surface area of 103.2 square centimeters (cm^2). When required to ensure good germination and healthy plants, a fungicide treatment and/or other chemical or physical treatment was applied. The plants were grown for 7-36 days in a greenhouse with an approximate 14 h photoperiod which was maintained at about 18° C. during the day and 17° C. during the night. Nutrients and water were added on a regular basis and supplemental lighting was provided with overhead metal halide 1000-Watt lamps as necessary. The plants were employed for testing when they reached the second or third true leaf stage.
(§2) A weighed amount, determined by the highest rate to be tested, of each test compound was placed in a 25 mL glass vial and was dissolved in 4 mL of a 97:3 v/v mixture of acetone and DMSO to obtain concentrated stock solutions. […] The concentrated stock solutions obtained were diluted with 20 mL of an aqueous mixture containing acetone, water, isopropyl alcohol, DMSO, Agri-Dex crop oil concentrate, and X-77 surfactant in a 48:39:10:1.5:1.5:0.02 v/v ratio to obtain spray solutions containing the highest application rates. Additional application rates were obtained by serial dilution of 12 mL of the high rate solution into a solution containing 2 mL of 97:3 v/v mixture of acetone and DMSO and 10 mL of an aqueous mixture containing acetone, water, isopropyl alcohol, DMSO, Agri-Dex crop oil concentrate, and X-77 surfactant in a 48:39:10:1.5:1.5:0.02 v/v ratio to obtain ½×, ¼×, ⅛× and 1/16× rates of the high rate. Compound requirements are based upon a 12 mL application volume at a rate of 187 liters per hectare (L/ha). Formulated compounds were applied to the plant material with an overhead Mandel track sprayer equipped with 8002E nozzles calibrated to deliver 187 L/ha over an application area of 0.503 square meters at a spray height of 18 inches (43 cm) above the average plant canopy height. Control plants were sprayed in the same manner with the solvent blank.
(§3) The treated plants and control plants were placed in a greenhouse as described above and watered by subirrigation to prevent wash-off of the test compounds. After 21 dAYS, the condition of the test plants as compared with that of the untreated plants was determined visually and scored on a scale of 0 to 100 percent where 0 corresponds to no injury and 100 corresponds to complete kill and presented as indicated in Table A.
(§4) By applying the well-accepted probit analysis as described by J. Berkson in Journal of the American Statistical Society, 48, 565 (1953) and by D. Finney in “Probit Analysis” Cambridge University Press (1952), herbicidal injury of a specific compound at various rates can be used to calculate GR10, GR20, GR50, GR80 and GR90 values, which are defined as growth reduction factors that correspond to the effective dose of herbicide required to provide plant growth reduction (GR) of 10 percent, 20 percent, 50 percent, 80 percent and 90 percent, respectively. Probit analysis was applied to data collected from multiple dose rates of individual compounds utilizing the procedures explained in the following examples. The analysis of those dose rates is captured in the following tables.

[1] = test system: PHAMI (littleseed canarygrass); assay type: in vivo, Phalaris minor; conditions: for Visual Growth Reduction (%) 21 Days After Application, PHAMI: postemergence; for GR50, PHAMI: effective dose for growth reduction of 50 percent; for GR50, PHAMI / GR80, PHAMI / GR90, PHAMI: probit analysis; for GR80, PHAMI: effective dose for growth reduction of 80 percent; for GR90, PHAMI: effective dose for growth reduction of 90 percent
Protocol: as §1, §2, §3, §4

POLCO (wild buckwheat) = assay type: in vivo, Polygonum convolvulus; conditions: for Visual Growth Reduction (%) 21 Days After Application, POLCO: postemergence; for GR50, POLCO: effective dose for growth reduction of 50 percent; for GR50, POLCO / GR80, POLCO / GR90, POLCO: probit analysis; for GR80, POLCO: effective dose for growth reduction of 80 percent; for GR90, POLCO: effective dose for growth reduction of 90 percent
Protocol: as §1, §2, §3, §4

SMILES: Nc1c(F)c(-c2ccc(C(F)(F)F)nc2)nc(C(=O)O)c1Cl [Compound 46, 4-amino-5-chloro-3-fluoro-6′-(trifluoromethyl)-[2,3′-bipyridine]-6-carboxylic acid]
- Visual Growth Reduction (%) 21 Days After Application, PAPRH (PAPRH (common poppy); 35 g ai/ha): A (95-100)
- Visual Growth Reduction (%) 21 Days After Application, PAPRH (PAPRH (common poppy); 70 g ai/ha): A (95-100)
- Visual Growth Reduction (%) 21 Days After Application, PAPRH (PAPRH (common poppy); 140 g ai/ha): A (95-100)
- GR50, PAPRH (PAPRH (common poppy)): 2 g ai/ha
- GR80, PAPRH (PAPRH (common poppy)): 8 g ai/ha
- GR90, PAPRH (PAPRH (common poppy)): 16 g ai/ha
- Visual Growth Reduction (%) 21 Days After Application, PHAMI ([1]; 35 g ai/ha): B (85-94)
- Visual Growth Reduction (%) 21 Days After Application, PHAMI ([1]; 70 g ai/ha): B (85-94)
- Visual Growth Reduction (%) 21 Days After Application, PHAMI ([1]; 140 g ai/ha): B (85-94)
- GR50, PHAMI [1]: 15 g ai/ha
- GR80, PHAMI [1]: 24 g ai/ha
- GR90, PHAMI [1]: 31 g ai/ha
- Visual Growth Reduction (%) 21 Days After Application, POLCO (POLCO (wild buckwheat); 35 g ai/ha): E (45-59)
- Visual Growth Reduction (%) 21 Days After Application, POLCO (POLCO (wild buckwheat); 70 g ai/ha): D (60-74)
- Visual Growth Reduction (%) 21 Days After Application, POLCO (POLCO (wild buckwheat); 140 g ai/ha): D (60-74)
- GR50, POLCO (POLCO (wild buckwheat)): 27 g ai/ha
- GR80, POLCO (POLCO (wild buckwheat)): >140 g ai/ha
- GR90, POLCO (POLCO (wild buckwheat)): >140 g ai/ha

SMILES: Cc1c(-c2cc(N)c(Cl)c(C(=O)O)n2)ccc(Cl)c1F [Compound 52]
- Visual Growth Reduction (%) 21 Days After Application, PAPRH (PAPRH (common poppy); 35 g ai/ha): D (60-74)
- Visual Growth Reduction (%) 21 Days After Application, PAPRH (PAPRH (common poppy); 70 g ai/ha): D (60-74)
- Visual Growth Reduction (%) 21 Days After Application, PAPRH (PAPRH (common poppy); 140 g ai/ha): C (75-84)
- GR50, PAPRH (PAPRH (common poppy)): 4 g ai/ha
- GR80, PAPRH (PAPRH (common poppy)): >140 g ai/ha
- GR90, PAPRH (PAPRH (common poppy)): >140 g ai/ha
- Visual Growth Reduction (%) 21 Days After Application, PHAMI ([1]; 35 g ai/ha): C (75-84)
- Visual Growth Reduction (%) 21 Days After Application, PHAMI ([1]; 70 g ai/ha): B (85-94)
- Visual Growth Reduction (%) 21 Days After Application, PHAMI ([1]; 140 g ai/ha): B (85-94)
- GR50, PHAMI [1]: 18 g ai/ha
- GR80, PHAMI [1]: 38 g ai/ha
- GR90, PHAMI [1]: 56 g ai/ha
- Visual Growth Reduction (%) 21 Days After Application, POLCO (POLCO (wild buckwheat); 35 g ai/ha): D (60-74)
- Visual Growth Reduction (%) 21 Days After Application, POLCO (POLCO (wild buckwheat); 70 g ai/ha): C (75-84)
- Visual Growth Reduction (%) 21 Days After Application, POLCO (POLCO (wild buckwheat); 140 g ai/ha): A (95-100)
- GR50, POLCO (POLCO (wild buckwheat)): 10 g ai/ha
- GR80, POLCO (POLCO (wild buckwheat)): 41 g ai/ha
- GR90, POLCO (POLCO (wild buckwheat)): 84 g ai/ha

SMILES: COC(=O)c1nc(-c2ccc(Cl)c(F)c2C)cc(N)c1Cl [Compound 73]
- Visual Growth Reduction (%) 21 Days After Application, PAPRH (PAPRH (common poppy); 35 g ai/ha): D (60-74)
- Visual Growth Reduction (%) 21 Days After Application, PAPRH (PAPRH (common poppy); 70 g ai/ha): D (60-74)
- Visual Growth Reduction (%) 21 Days After Application, PAPRH (PAPRH (common poppy); 140 g ai/ha): A (95-100)
- GR50, PAPRH (PAPRH (common poppy)): 15 g ai/ha
- GR80, PAPRH (PAPRH (common poppy)): 48 g ai/ha
- GR90, PAPRH (PAPRH (common poppy)): 90 g ai/ha
- Visual Growth Reduction (%) 21 Days After Application, PHAMI ([1]; 35 g ai/ha): D (60-74)
- Visual Growth Reduction (%) 21 Days After Application, PHAMI ([1]; 70 g ai/ha): D (60-74)
- Visual Growth Reduction (%) 21 Days After Application, PHAMI ([1]; 140 g ai/ha): C (75-84)
- GR50, PHAMI [1]: 40 g ai/ha
- GR80, PHAMI [1]: 107 g ai/ha
- GR90, PHAMI [1]: >140 g ai/ha
- Visual Growth Reduction (%) 21 Days After Application, POLCO (POLCO (wild buckwheat); 35 g ai/ha): A (95-100)
- Visual Growth Reduction (%) 21 Days After Application, POLCO (POLCO (wild buckwheat); 70 g ai/ha): A (95-100)
- Visual Growth Reduction (%) 21 Days After Application, POLCO (POLCO (wild buckwheat); 140 g ai/ha): A (95-100)
- GR50, POLCO (POLCO (wild buckwheat)): 7 g ai/ha
- GR80, POLCO (POLCO (wild buckwheat)): 10 g ai/ha
- GR90, POLCO (POLCO (wild buckwheat)): 12 g ai/ha
